PubChem BioAssay (NCI)
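A five-concentration, 48-hour dose response in 96-well plates underlies each endpoint, interpolated linearly between surrounding concentrations. TGI: concentration producing complete growth inhibition.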

Key:
Assay in all cases: DTP human tumour cell line panel, 48 h
786-0 renal = tested on: 786-0 renal
A498 renal = tested on: A498 renal
A549 NSCLC = tested on: A549 NSCLC
ACHN renal = tested on: ACHN renal
BT-549 breast = tested on: BT-549 breast
CAKI-1 renal = tested on: CAKI-1 renal
CCRF-CEM leukemia = tested on: CCRF-CEM leukemia
COLO 205 colon = tested on: COLO 205 colon
DU-145 prostate = tested on: DU-145 prostate
EKVX NSCLC = tested on: EKVX NSCLC
HCT-116 colon = tested on: HCT-116 colon
HCT-15 colon = tested on: HCT-15 colon
HL-60(TB) leukemia = tested on: HL-60(TB) leukemia
HOP-62 NSCLC = tested on: HOP-62 NSCLC
HOP-92 NSCLC = tested on: HOP-92 NSCLC
HS 578T breast = tested on: HS 578T breast
HT29 colon = tested on: HT29 colon
IGROV1 ovarian = tested on: IGROV1 ovarian
KM12 colon = tested on: KM12 colon
LOX IMVI melanoma = tested on: LOX IMVI melanoma
M14 melanoma = tested on: M14 melanoma
MALME-3M melanoma = tested on: MALME-3M melanoma
MCF7 breast = tested on: MCF7 breast
MDA-MB-435 = tested on: MDA-MB-435
MDA-N = tested on: MDA-N
MOLT-4 leukemia = tested on: MOLT-4 leukemia
NCI-H23 lung = tested on: NCI-H23 lung
NCI-H460 lung = tested on: NCI-H460 lung
NCI-H522 lung = tested on: NCI-H522 lung
NCI/ADR-RES ovarian = tested on: NCI/ADR-RES ovarian
OVCAR-3 ovarian = tested on: OVCAR-3 ovarian
OVCAR-4 ovarian = tested on: OVCAR-4 ovarian
OVCAR-5 ovarian = tested on: OVCAR-5 ovarian
OVCAR-8 ovarian = tested on: OVCAR-8 ovarian
PC-3 prostate = tested on: PC-3 prostate
RXF 393 renal = tested on: RXF 393 renal
SF-268 CNS = tested on: SF-268 CNS
SF-295 CNS = tested on: SF-295 CNS
SF-539 CNS = tested on: SF-539 CNS
SK-MEL-2 melanoma = tested on: SK-MEL-2 melanoma
SK-MEL-28 melanoma = tested on: SK-MEL-28 melanoma
SK-MEL-5 melanoma = tested on: SK-MEL-5 melanoma
SK-OV-3 ovarian = tested on: SK-OV-3 ovarian
SN12C renal = tested on: SN12C renal
SNB-19 CNS = tested on: SNB-19 CNS
SNB-75 CNS = tested on: SNB-75 CNS
SR leukemia = tested on: SR leukemia
SW-620 colon = tested on: SW-620 colon
T-47D breast = tested on: T-47D breast
TK-10 renal = tested on: TK-10 renal
U251 CNS = tested on: U251 CNS
UACC-257 melanoma = tested on: UACC-257 melanoma
UACC-62 melanoma = tested on: UACC-62 melanoma
UO-31 renal = tested on: UO-31 renal
HCC-2998 colon = tested on: HCC-2998 colon
K-562 leukemia = tested on: K-562 leukemia
MDA-MB-231 breast = tested on: MDA-MB-231 breast
NCI-H226 lung = tested on: NCI-H226 lung
RPMI-8226 leukemia = tested on: RPMI-8226 leukemia

CCOC(=O)c1nc2cc(F)c(F)cc2nc1NCc1cc(OC)c(OC)c(OC)c1
TGI (786-0 renal): > 100 µM | TGI (A498 renal): > 100 µM | TGI (A549 NSCLC): > 100 µM | TGI (ACHN renal): > 100 µM | TGI (BT-549 breast): > 100 µM | TGI (CAKI-1 renal): > 100 µM | TGI (CCRF-CEM leukemia): > 100 µM | TGI (COLO 205 colon): > 100 µM | TGI (DU-145 prostate): > 100 µM | TGI (EKVX NSCLC): > 100 µM | TGI (HCT-116 colon): > 100 µM | TGI (HCT-15 colon): > 100 µM | TGI (HL-60(TB) leukemia): > 100 µM | TGI (HOP-62 NSCLC): > 100 µM | TGI (HOP-92 NSCLC): > 100 µM | TGI (HS 578T breast): > 100 µM | TGI (HT29 colon): > 100 µM | TGI (IGROV1 ovarian): > 100 µM | TGI (KM12 colon): > 100 µM | TGI (LOX IMVI melanoma): > 100 µM | TGI (M14 melanoma): > 100 µM | TGI (MALME-3M melanoma): > 100 µM | TGI (MCF7 breast): > 100 µM | TGI (MDA-MB-435): > 100 µM | TGI (MDA-N): > 100 µM | TGI (MOLT-4 leukemia): > 100 µM | TGI (NCI-H23 lung): > 100 µM | TGI (NCI-H460 lung): > 100 µM | TGI (NCI-H522 lung): > 100 µM | TGI (NCI/ADR-RES ovarian): > 100 µM | TGI (OVCAR-3 ovarian): > 100 µM | TGI (OVCAR-4 ovarian): > 100 µM | TGI (OVCAR-5 ovarian): > 100 µM | TGI (OVCAR-8 ovarian): > 100 µM | TGI (PC-3 prostate): > 100 µM | TGI (RXF 393 renal): > 100 µM | TGI (SF-268 CNS): > 100 µM | TGI (SF-295 CNS): > 100 µM | TGI (SF-539 CNS): > 100 µM | TGI (SK-MEL-2 melanoma): > 100 µM | TGI (SK-MEL-28 melanoma): > 100 µM | TGI (SK-MEL-5 melanoma): > 100 µM | TGI (SK-OV-3 ovarian): > 100 µM | TGI (SN12C renal): > 100 µM | TGI (SNB-19 CNS): > 100 µM | TGI (SNB-75 CNS): > 100 µM | TGI (SR leukemia): > 100 µM | TGI (SW-620 colon): > 100 µM | TGI (T-47D breast): > 100 µM | TGI (TK-10 renal): > 100 µM | TGI (U251 CNS): > 100 µM | TGI (UACC-257 melanoma): > 100 µM | TGI (UACC-62 melanoma): > 100 µM | TGI (UO-31 renal): > 100 µM

COC(=O)C1=C(O)C(C(=O)OC)[C@]2(O)[C@H](C(=O)OC)[C@H]1C[C@@H](c1ccc(O)cc1)[C@H]2C(=O)OC (stereo partly specified)
TGI (786-0 renal): > 100 µM | TGI (A498 renal): > 100 µM | TGI (A549 NSCLC): > 100 µM | TGI (ACHN renal): > 100 µM | TGI (BT-549 breast): 91.5 µM | TGI (CAKI-1 renal): > 100 µM | TGI (CCRF-CEM leukemia): > 100 µM | TGI (COLO 205 colon): > 100 µM | TGI (DU-145 prostate): 71.6 µM | TGI (EKVX NSCLC): > 100 µM | TGI (HCC-2998 colon): 46.5 µM | TGI (HCT-116 colon): 94.3 µM | TGI (HCT-15 colon): > 100 µM | TGI (HL-60(TB) leukemia): 95.1 µM | TGI (HOP-62 NSCLC): 55.4 µM | TGI (HOP-92 NSCLC): > 100 µM | TGI (HS 578T breast): 87.3 µM | TGI (HT29 colon): > 100 µM | TGI (IGROV1 ovarian): > 100 µM | TGI (K-562 leukemia): > 100 µM | TGI (KM12 colon): 49.9 µM | TGI (LOX IMVI melanoma): > 100 µM | TGI (M14 melanoma): > 100 µM | TGI (MALME-3M melanoma): > 100 µM | TGI (MCF7 breast): > 100 µM | TGI (MDA-MB-231 breast): 60.7 µM | TGI (MDA-MB-435): > 100 µM | TGI (MDA-N): > 100 µM | TGI (MOLT-4 leukemia): > 100 µM | TGI (NCI-H226 lung): > 100 µM | TGI (NCI-H23 lung): > 100 µM | TGI (NCI-H460 lung): 74.5 µM | TGI (NCI/ADR-RES ovarian): > 100 µM | TGI (OVCAR-3 ovarian): 35.6 µM | TGI (OVCAR-4 ovarian): > 100 µM | TGI (OVCAR-5 ovarian): 97.1 µM | TGI (OVCAR-8 ovarian): > 100 µM | TGI (PC-3 prostate): 76.4 µM | TGI (RPMI-8226 leukemia): > 100 µM | TGI (RXF 393 renal): 45.1 µM | TGI (SF-268 CNS): > 100 µM | TGI (SF-295 CNS): 58.8 µM | TGI (SF-539 CNS): 88.3 µM | TGI (SK-MEL-28 melanoma): > 100 µM | TGI (SK-MEL-5 melanoma): > 100 µM | TGI (SK-OV-3 ovarian): 61.6 µM | TGI (SN12C renal): > 100 µM | TGI (SNB-19 CNS): > 100 µM | TGI (SNB-75 CNS): 81.5 µM | TGI (SR leukemia): > 100 µM | TGI (SW-620 colon): > 100 µM | TGI (T-47D breast): > 100 µM | TGI (TK-10 renal): 86.4 µM | TGI (U251 CNS): 50.1 µM | TGI (UACC-257 melanoma): > 100 µM | TGI (UACC-62 melanoma): > 100 µM | TGI (UO-31 renal): > 100 µM
